From patent US9750759B2, “Antitumoral compounds” (priority 2008, dated 2017)
Read-outs that look alike come from different tables or passages of the source.

Experiments:
Test in all cases: cells
Assay type in all cases: cell-based
A549 = details: Homo sapiens; for GI50: concentration that produces 50% growth inhibition; for IC (total growth inhibition): total growth inhibition (cytostatic effect), read-out: TGI
From the text: (§1) The aim of this assay is to evaluate the in vitro cytostatic (ability to delay or arrest tumor cell growth) or cytotoxic (ability to kill tumor cells) activity of the samples being tested.
(§2) A colorimetric type of assay, using sulforhodamine B (SRB) reaction has been adapted for a quantitative measurement of cell growth and viability (following the technique described by Skehan P et al. J. Natl. Cancer Inst. 1990, 82, 1107-1112).
(§3) This form of assay employs SBS-standard 96-well cell culture microplates (Faircloth et al. Methods in cell science, 1988, 11(4), 201-205; Mosmann et al, Journal of Immunological. Methods, 1983, 65(1-2), 55-63). All the cell lines used in this study, derived from different types of human cancer, were obtained from the American Type Culture Collection (ATCC).
(§4) Cells were maintained in Dulbecco's Modified Eagle Medium (DMEM) supplemented with 10% Fetal Bovine Serum (FBS), 2 mM L-glutamine, 100 U/mL penicillin and 100 U/mL streptomycin at 37° C., 5% CO2 and 98% humidity. For the experiments, cells were harvested from subconfluent cultures using trypsinization and resuspended in fresh medium before counting and plating.
(§5) Cells were seeded in 96 well microtiter plates at 5×10^3 cells per well in aliquots of 150 μL, and allowed to attach to the plate surface for 18 hours in drug free medium. One control (untreated) plate of each cell line was fixed (as described below) and used for time zero reference value. Afterwards, test samples were added to the cultures in ten serial dilutions, in aliquots of 50 μL, ranging from 10 to 0.00262 μg/mL. After 48 hours exposure, the antitumor effect was estimated by the SRB method: Briefly, cells were washed twice with PBS, fixed for 15 min in 1% glutaraldehyde solution, rinsed twice in PBS, and stained in 0.4% SRB solution for 30 min at room temperature. Cells were then rinsed several times with 1% acetic acid solution and air-dried. SRB was then extracted in 10 mM trizma base solution and the absorbance measured in an automated spectrophotometric plate reader at 490 nm. Cell survival was expressed as percentage of control cell growth. The final effect of the sample being tested was estimated by applying the NCI algorithm (Boyd M R and Paull K D. Drug Dev. Res. 1995, 34, 91-104).
(§6) Using the mean±SD of triplicate cultures, a dose-response curve was automatically generated using nonlinear regression analysis. Three reference parameters were calculated (NCI algorithm) by automatic interpolation: GI50=concentration that produces 50% growth inhibition; TGI=total growth inhibition (cytostatic effect) and LC50=concentration that produces 50% net cell killing (cytotoxic effect).

MDA-MB-231 = details: Homo sapiens; for GI50: concentration that produces 50% growth inhibition; for IC (total growth inhibition): read-out: TGI
From the text: as §1, §2, §3, §4, §5, §6

HT29 = details: Homo sapiens; for GI50: concentration that produces 50% growth inhibition; for IC (total growth inhibition): total growth inhibition (cytostatic effect), read-out: TGI
From the text: as §1, §2, §3, §4, §5, §6

[1] = A549, 48 hours exposure, concentration that produces 50% net cell killing, read-out: LC50 (the source's name)
[2] = MDA-MB-231, 48 hours exposure, concentration that produces 50% net cell killing, read-out: LC50 (the source's name)
[3] = MDA-MB-231, 48 hours exposure, total growth inhibition (cytostatic effect)
[4] = HT-29, HT29, 48 hours exposure, concentration that produces 50% net cell killing, read-out: LC50 (the source's name)
[5] = MDA-MB-231, 48 h, read-out: LC50

**Q.** Which results are given for COC1=CC[C@@H]([C@@H](C)/C=C(C)/C=C\C#CC(=O)N[C@H](C(=O)N/C=C\C[C@H](C/C=C(\C)Cl)O[Si](C)(C)C(C)(C)C)C(C)(C)C)OC1=O [Compound 64a]?
**A.** GI50 (A549; A549, 48 hours exposure): 4440 nM; CC50 (A549; [1]): > 14800 nM; IC (total growth inhibition) (A549; A549, 48 hours exposure): > 14.8 µM; GI50 (MDA-MB-231; MDA-MB-231, 48 hours exposure): 4890 nM; CC50 (MDA-MB-231; [2]): > 14800 nM; IC (total growth inhibition) (MDA-MB-231; [3]): > 14.8 µM; GI50 (HT29; HT-29, HT29, 48 hours exposure): 2220 nM; CC50 (HT29; [4]): > 14800 nM; IC (total growth inhibition) (HT29; HT-29, HT29, 48 hours exposure): 4.29 µM

**Q.** How did the GI50 (A549; A549, 48 hours exposure) turn out when COC1=CC[C@@H]([C@@H](C)/C=C(C)/C=C\C#CC(=O)N[C@H](C(=O)N/C=C\C[C@H](C/C=C(\C)Cl)O[Si](C)(C)C(C)(C)C)C(C)C)OC1=O [Compound 64b] was run?
**A.** Its GI50 is 680 nM.

**Q.** And the CC50 (A549; [1])?
**A.** Its CC50 is over 15100 nM.

**Q.** And the IC (total growth inhibition) (A549; A549, 48 hours exposure)?
**A.** The IC (total growth inhibition) was 3.33 µM.

**Q.** And the GI50 (MDA-MB-231; MDA-MB-231, 48 hours exposure)?
**A.** Its GI50 is 1330 nM.

**Q.** What about the CC50 (MDA-MB-231; [2]) of the same compound?
**A.** Its CC50 is over 15100 nM.

**Q.** What about the IC (total growth inhibition) (MDA-MB-231; [3]) of the same compound?
**A.** Its IC (total growth inhibition) is over 15.1 µM.

**Q.** And the GI50 (HT29; HT-29, HT29, 48 hours exposure)?
**A.** Its GI50 is 423 nM.

**Q.** And the CC50 (HT29; [4])?
**A.** The CC50 was 2420 nM.

**Q.** And the IC (total growth inhibition) (HT29; HT-29, HT29, 48 hours exposure)?
**A.** The IC (total growth inhibition) was 0.65 µM.

**Q.** How did the CC50 (A549; A549, 48 h, read-out: LC50) turn out when COC1=CC[C@@H]([C@@H](C)/C=C(C)/C=C\C#CC(=O)N[C@H](C(=O)N/C=C\C[C@@H](O)C/C=C(\C)Cl)C(C)(C)C)OC1=O [Compound 65a] was run?
**A.** The CC50 was 11800 nM.

**Q.** And the GI50 (A549; A549, 48 hours exposure)?
**A.** The GI50 was 3390 nM.

**Q.** And the IC (total growth inhibition) (A549; A549, 48 hours exposure)?
**A.** The IC (total growth inhibition) was 6.24 µM.

**Q.** What about the CC50 (MDA-MB-231; [5]) of the same compound?
**A.** Its CC50 is over 17800 nM.

**Q.** What about the GI50 (MDA-MB-231; MDA-MB-231, 48 hours exposure) of the same compound?
**A.** Its GI50 is 3560 nM.

**Q.** And the IC (total growth inhibition) (MDA-MB-231; [3])?
**A.** Its IC (total growth inhibition) is 9.98 µM.

**Q.** What about the CC50 (HT29; HT-29, 48 h, read-out: LC50) of the same compound?
**A.** Its CC50 is 7310 nM.

**Q.** What about the GI50 (HT29; HT-29, HT29, 48 hours exposure) of the same compound?
**A.** The GI50 was 1780 nM.

**Q.** And the IC (total growth inhibition) (HT29; HT-29, HT29, 48 hours exposure)?
**A.** Its IC (total growth inhibition) is 3.03 µM.

**Q.** Which CC50 (A549; A549, 48 h, read-out: LC50) does the source give for COC1=CC[C@@H]([C@@H](C)/C=C(C)/C=C\C#CC(=O)N[C@H](C(=O)N/C=C\C[C@@H](O)C/C=C(\C)Cl)C(C)C)OC1=O [Compound 65b] here?
**A.** Its CC50 is over 18300 nM.

**Q.** And the GI50 (A549; A549, 48 hours exposure)?
**A.** Its GI50 is 311 nM.

**Q.** And the IC (total growth inhibition) (A549; A549, 48 hours exposure)?
**A.** The IC (total growth inhibition) was 1.81 µM.

**Q.** What about the CC50 (MDA-MB-231; [5]) of the same compound?
**A.** The CC50 was over 18300 nM.

**Q.** And the IC (total growth inhibition) (MDA-MB-231; MDA-MB-231, 48 h)?
**A.** The IC (total growth inhibition) was over 18.3 µM.

**Q.** What about the GI50 (MDA-MB-231; MDA-MB-231, 48 hours exposure) of the same compound?
**A.** Its GI50 is 548 nM.

**Q.** And the CC50 (HT29; HT-29, 48 h, read-out: LC50)?
**A.** The CC50 was over 18300 nM.

**Q.** And the GI50 (HT29; HT-29, HT29, 48 hours exposure)?
**A.** Its GI50 is 183 nM.

**Q.** What about the IC (total growth inhibition) (HT29; HT-29, HT29, 48 hours exposure) of the same compound?
**A.** The IC (total growth inhibition) was 0.494 µM.

**Q.** For COC1=CC[C@@H]([C@@H](C)/C=C(C)/C=C\C#CC(=O)N[C@H](C(=O)N/C=C\C[C@H](C/C=C(\C)Cl)OC(N)=O)C(C)(C)C)OC1=O [Compound 66a], which CC50 (A549; A549, 48 h, read-out: LC50) is on record?
**A.** The CC50 was over 16600 nM.

**Q.** What about the GI50 (A549; A549, 48 hours exposure) of the same compound?
**A.** The GI50 was 33.1 nM.

**Q.** And the IC (total growth inhibition) (A549; A549, 48 hours exposure)?
**A.** Its IC (total growth inhibition) is 0.397 µM.

**Q.** And the CC50 (MDA-MB-231; [5])?
**A.** Its CC50 is over 16600 nM.

**Q.** What about the GI50 (MDA-MB-231; MDA-MB-231, 48 hours exposure) of the same compound?
**A.** The GI50 was 44.7 nM.

**Q.** And the IC (total growth inhibition) (MDA-MB-231; [3])?
**A.** Its IC (total growth inhibition) is 0.778 µM.

**Q.** And the CC50 (HT29; HT-29, 48 h, read-out: LC50)?
**A.** Its CC50 is 2810 nM.

**Q.** And the GI50 (HT29; HT-29, HT29, 48 hours exposure)?
**A.** Its GI50 is 12.1 nM.

**Q.** What about the IC (total growth inhibition) (HT29; HT-29, HT29, 48 hours exposure) of the same compound?
**A.** The IC (total growth inhibition) was 0.0513 µM.

**Q.** Which results are given for COC1=CC[C@@H]([C@@H](C)/C=C(C)/C=C\C#CC(=O)N[C@H](C(=O)N/C=C\C[C@H](C/C=C(\C)Cl)OC(N)=O)C(C)C)OC1=O [Compound 66b]?
**A.** CC50 (A549; A549, 48 h, read-out: LC50): > 16900 nM; GI50 (A549; A549, 48 hours exposure): 25.4 nM; IC (total growth inhibition) (A549; A549, 48 hours exposure): 0.0813 µM; CC50 (MDA-MB-231; [5]): 4580 nM; GI50 (MDA-MB-231; MDA-MB-231, 48 hours exposure): 27.1 nM; IC (total growth inhibition) (MDA-MB-231; [3]): 0.373 µM; CC50 (HT29; HT-29, 48 h, read-out: LC50): 42.4 nM; GI50 (HT29; HT-29, HT29, 48 hours exposure): 22 nM; IC (total growth inhibition) (HT29; HT-29, HT29, 48 hours exposure): 0.0288 µM

**Q.** Which results are given for COC1=CC[C@@H]([C@@H](C)/C=C\C=C/C(=O)N[C@H](C(=O)N/C=C\C[C@H](C/C=C(\C)Cl)O[Si](C)(C)C(C)(C)C)C(C)(C)C)OC1=O [Compound 67]?
**A.** GI50 (A549; A549, 48 hours exposure): 1570 nM; CC50 (A549; [1]): 4860 nM; IC (total growth inhibition) (A549; A549, 48 hours exposure): 2.82 µM; GI50 (MDA-MB-231; MDA-MB-231, 48 hours exposure): 910 nM; CC50 (MDA-MB-231; [2]): 1210 nM; IC (total growth inhibition) (MDA-MB-231; [3]): 1.04 µM; GI50 (HT29; HT-29, HT29, 48 hours exposure): 1880 nM; CC50 (HT29; [4]): 3140 nM; IC (total growth inhibition) (HT29; HT-29, HT29, 48 hours exposure): 2.35 µM

**Q.** With COC1=CC[C@@H]([C@@H](C)/C=C\C=C/C(=O)N[C@H](C(=O)N/C=C\C[C@@H](O)C/C=C(\C)Cl)C(C)(C)C)OC1=O [Compound 68] as the compound, how does the CC50 (A549; A549, 48 h, read-out: LC50) read?
**A.** The CC50 was over 19100 nM.

**Q.** What about the GI50 (A549; A549, 48 hours exposure) of the same compound?
**A.** Its GI50 is 1470 nM.

**Q.** What about the IC (total growth inhibition) (A549; A549, 48 hours exposure) of the same compound?
**A.** Its IC (total growth inhibition) is 4.21 µM.

**Q.** What about the CC50 (MDA-MB-231; [5]) of the same compound?
**A.** The CC50 was 6500 nM.

**Q.** And the GI50 (MDA-MB-231; MDA-MB-231, 48 hours exposure)?
**A.** Its GI50 is 784 nM.

**Q.** What about the IC (total growth inhibition) (MDA-MB-231; [3]) of the same compound?
**A.** Its IC (total growth inhibition) is 1.49 µM.

**Q.** What about the CC50 (HT29; HT-29, 48 h, read-out: LC50) of the same compound?
**A.** The CC50 was over 19100 nM.

**Q.** And the GI50 (HT29; HT-29, HT29, 48 hours exposure)?
**A.** Its GI50 is 459 nM.

**Q.** What about the IC (total growth inhibition) (HT29; HT-29, HT29, 48 hours exposure) of the same compound?
**A.** Its IC (total growth inhibition) is 0.707 µM.
